Measured values reported in patent publication US3966701A, “Fibrinogen peptide derivatives” (The Dow Chemical Company, priority 1973, dated 1976).
Where a SMILES comes first, the peptide text is derived from it. The star is where a group is joined. Boc = CC(C)(C)OC(=O)*; OBn = c1ccc(CO*)cc1

Assays:
thrombin [1] = assay: in vitro plasma recalcification time (PRT): calcium ions added to oxalated plasma, clotting time measured; type: biochemical, dog
Method: The plasma recalcification time (PRT) was also used in an in vitro test for measuring thrombin inhibition wherein exogenous calcium ions were added to oxalated plasma (the system makes its thrombin in situ), and measuring clotting time in the presence of the compounds.
0.2 ml. oxalated dog plasma
0.1 ml. Barbital buffer saline containing test compound
0.1 ml. oxalated dog plasma
0.2 ml. Barbital buffer saline containing test compound

thrombin [2] = assay: in vitro thrombin time (TT): exogenous thrombin added to oxalated plasma, clotting time measured; type: biochemical; conditions: oxalated dog plasma, thrombin 1 unit/ml, control 15 sec
Method: Their anticoagulant activity was determined by measuring thrombin time (TT) utilizing an in vitro test wherein exogenous thrombin is added to oxalated plasma and clotting time is measured in the presence of the test compound.
^a Clotting mixture: 0.2 ml. oxalated dog plasma, 0.1 ml. barbital
buffer containing peptide and 0.1 ml. thrombin (1 unit/ml.)

[3] = 0.25 mg/ml, clotting mixture (a), 0.2 ml oxalated dog plasma, control 66 sec
[4] = 0.5 mg/ml, clotting mixture (a), 0.2 ml oxalated dog plasma, control 66 sec
[5] = 1.0 mg/ml, clotting mixture (a), 0.2 ml oxalated dog plasma, control 66 sec
[6] = 1.5 mg/ml, clotting mixture (a), 0.2 ml oxalated dog plasma, control 66 sec

| Molecule | PRT (average) (thrombin [1]; [3]) [s] | PRT (average) (thrombin [1]; [4]) [s] | PRT (average) (thrombin [1]; [5]) [s] | PRT (average) (thrombin [1]; [6]) [s] | PRT (average) (thrombin [1]; 2 mg/ml, clotting mixture (a), 0.2 ml oxalated dog plasma, control 66 sec) [s] | Thrombin Times (sec) at Peptide Concentrations (mg/ml) (thrombin [2]; 0.125 mg/ml peptide) [s] | Thrombin Times (sec) at Peptide Concentrations (mg/ml) (thrombin [2]; 0.25 mg/ml peptide) [s] | Thrombin Times (sec) at Peptide Concentrations (mg/ml) (thrombin [2]; 0.5 mg/ml peptide) [s] | Thrombin Times (sec) at Peptide Concentrations (mg/ml) (thrombin [2]; 1.0 mg/ml peptide) [s] | Thrombin Times (sec) at Peptide Concentrations (mg/ml) (thrombin [2]; 2.0 mg/ml peptide) [s] | PRT (average) (thrombin [1]; 0.25 mg/ml, clotting mixture (a), 0.2 ml oxalated dog plasma, control 55 sec) [s] | PRT (average) (thrombin [1]; 0.5 mg/ml, clotting mixture (a), 0.2 ml oxalated dog plasma, control 55 sec) [s] | PRT (average) (thrombin [1]; 1.0 mg/ml, clotting mixture (a), 0.2 ml oxalated dog plasma, control 55 sec) [s] | PRT (average) (thrombin [1]; 1.5 mg/ml, clotting mixture (a), 0.2 ml oxalated dog plasma, control 55 sec) [s] | PRT (average) (thrombin [1]; 2 mg/ml, clotting mixture (a), 0.2 ml oxalated dog plasma, control 55 sec) [s] | PRT (average) (thrombin [1]; 0.25 mg/ml, clotting mixture (b), 0.1 ml oxalated dog plasma, control 115 sec) [s] | PRT (average) (thrombin [1]; 0.5 mg/ml, clotting mixture (b), 0.1 ml oxalated dog plasma, control 115 sec) [s] | PRT (average) (thrombin [1]; 1.0 mg/ml, clotting mixture (b), 0.1 ml oxalated dog plasma, control 115 sec) [s] | PRT (average) (thrombin [1]; 2 mg/ml, clotting mixture (b), 0.1 ml oxalated dog plasma, control 115 sec) [s] |
| --- | --- | --- | --- | --- | --- | --- | --- | --- | --- | --- | --- | --- | --- | --- | --- | --- | --- | --- | --- |
| CC(C)(C)OC(=O)N1CCC[C@H]1C(=O)N[C@@H](CCCNC(=N)N)C(=O)OCc1ccccc1.CO.Cc1ccc(S(=O)(=O)O)cc1 [Example 1, N-t-Butyloxycarbonyl-L-prolyl-L-arginine Benzyl Ester p-Toluenesulfonate Methanolate] (Boc-Pro-Arg-OBn) | 128 | 160 | 207 | 229 | 250 | 40 | 44 | 73 | 91 | 159 |  |  |  |  |  |  |  |  |  |
| CC(C)(C)OC(=O)NCC(=O)N1CCC[C@H]1C(=O)N[C@@H](CCCNC(=N)N)C(=O)OCc1ccccc1.Cc1ccc(S(=O)(=O)O)cc1 [Example 3, N-t-Butyloxycarbonylglycyl-L-prolyl-L-arginine Benzyl Ester p-Toluenesulfonate] (Boc-Gly-Pro-Arg-OBn) | 88 | 110 | 146 | 202 |  | 23 | 29 | 42 | 56 | 75 |  |  |  |  |  |  |  |  |  |
| Glycyl-L-Prolyl-L-Arginine Benzyl Ester p-Toluenesulfonate Trifluoroacetate [Example 4] |  |  |  |  |  | 19 | 26 | 44 | 68 | 135 | 77 | 100 | 198 | 246 | 296 |  |  |  |  |
| L-Prolyl-L-arginine Benzyl Ester p-Toluenesulfonate Trifluoroacetate [Example 2] | 89 | 102 | 134 | 209 |  | 19 | 23 | 31 | 46 | 69 |  |  |  |  |  |  |  |  |  |
| N-Benzyloxycarbonyl-L-prolyl-L-arginine Benzyl Ester p-Toluenesulfonate Methanolate [Example 5] |  |  |  |  |  |  |  |  |  |  |  |  |  |  |  | 240 | 270 | 345 | 435 |
